Experimental data as given in patent US9850225B2, “Compounds useful as immunomodulators” (BRISTOL-MYERS SQUIBB COMPANY, priority 2014, dated 2017).
Where a name gives a salt, the structure may show the parent alone. Read-outs that look alike come from different tables or passages of the source.

Target: PD-1/PD-L1 interaction (PD-1-Ig / PD-L1-His) (Homo sapiens (Human), UniProt Q9NZQ7)
Assay: PD-1/PD-L1 Homogenous Time-Resolved Fluorescence (HTRF) binding assay
Settings: PD-1/PD-L1 HTRF binding assay, read-out: Range or IC50
Procedure, shortened: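 Human PD-L1-His (10 nM final) was pre-incubated with inhibitor for 15 min, then PD-1-Ig (20 nM final) was added for a further 15 min in dPBS with 0.1% BSA and 0.05% Tween-20. Binding was detected by HTRF using Eu-cryptate anti-Ig (1 nM) and APC anti-His (20 nM).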

Chain of PD-1/PD-L1 interaction (PD-1-Ig / PD-L1-His) (Q9NZQ7 other isoform, or with tags, fused parts or gaps): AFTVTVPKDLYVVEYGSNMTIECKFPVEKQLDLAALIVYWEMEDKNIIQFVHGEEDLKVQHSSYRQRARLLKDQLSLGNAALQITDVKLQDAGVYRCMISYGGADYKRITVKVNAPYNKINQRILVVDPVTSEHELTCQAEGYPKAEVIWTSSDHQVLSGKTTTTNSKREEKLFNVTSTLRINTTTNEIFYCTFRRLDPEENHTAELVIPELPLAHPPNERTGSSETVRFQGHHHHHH

Row | SMILES | IC50 (value given as range class) | IC50 (numeric value)
1 | CC(=O)NCCNCc1ccc(OCc2cccc(-c3ccccc3)c2C)cc1OCc1ccc(Br)cc1C#N [Example 1097, N-(2-((2-((4-bromo-2-cyanobenzyl)oxy)-4-((2-methyl-[1,1′-biphenyl]-3-yl)methoxy)benzyl)amino)ethyl)acetamide] | 100 to 20000 nM | –
2 | CC(=O)NCCNCc1ccc(OCc2cccc(-c3ccccc3)c2C)cc1OCc1ccc(C(=O)O)cc1 [Example 1043, 4-((2-(((2-acetamidoethyl)amino)methyl)-5-((2-methyl-[1,1′-biphenyl]-3-yl)methoxy)phenoxy)methyl)benzoic acid] | – | 239 nM
3 | Cc1c(COc2cc(OCc3cccc(C#N)c3)c(CN3CCN(C)CC3C(=O)O)cc2Cl)cccc1-c1ccc2c(c1)OCCO2 (stereo not shown) [Example 1224, 1-(5-chloro-2-((3-cyanobenzyl)oxy)-4-((3-(2,3-dihydrobenzo[b][1,4]dioxin-6-yl)-2-methylbenzyl)oxy)benzyl)-4-methylpiperazine-2-carboxylic acid] | 10 to 100 nM | –
4 | CC(=O)NCCNCc1ccc(OCc2cccc(-c3ccccc3)c2C)cc1OCc1cc(C(F)(F)F)ccc1F [Example 1080, N-(2-((2-((2-fluoro-5-(trifluoromethyl)benzyl)oxy)-4-((2-methyl-[1,1′-biphenyl]-3-yl)methoxy)benzyl)amino)ethyl)acetamide] | 100 to 20000 nM | –
5 | Cc1c(COc2cc(OCc3cccc(C#N)c3)c(CNC(C(=O)O)C(C)(C)O)cc2Cl)cccc1-c1ccc2c(c1)OCCO2 (stereo not shown) [Example 1210, 2-((5-chloro-2-((3-cyanobenzyl)oxy)-4-((3-(2,3-dihydrobenzo[b][1,4]dioxin-6-yl)-2-methylbenzyl)oxy)benzyl)amino)-3-hydroxy-3-methylbutanoic acid] | – | 12.7 nM
6 | CC(=O)NCCNCc1ccc(OCc2cccc(-c3ccccc3)c2C)cc1OCc1ccc(F)c(C)c1 [Example 1108, N-(2-((2-((4-fluoro-3-methylbenzyl)oxy)-4-((2-methyl-[1,1′-biphenyl]-3-yl)methoxy)benzyl)amino)ethyl)acetamide] | – | 624 nM
7 | CC(=O)NCCNCc1ccc(OCc2cccc(-c3ccccc3)c2C)cc1OCc1ccc(C(F)(F)F)cc1 [Example 1052, N-(2-((4-((2-methyl-[1,1′-biphenyl]-3-yl)methoxy)-2-((4-(trifluoromethyl)benzyl)oxy)benzyl)amino)ethyl)acetamide] | 100 to 20000 nM | –
8 | Cc1c(COc2cc(OCc3cccc(C#N)c3)c(CNC(C(=O)O)c3c[nH]c4ccccc34)cc2Cl)cccc1-c1ccc2c(c1)OCCO2 (stereo not shown) [Example 1211, 2-((5-chloro-2-((3-cyanobenzyl)oxy)-4-((3-(2,3-dihydrobenzo[b][1,4]dioxin-6-yl)-2-methylbenzyl)oxy)benzyl)amino)-2-(1H-indol-3-yl)acetic acid] | 10 to 100 nM | –
9 | Cc1c(COc2cc(OCc3cccc(C#N)c3)c(CN[C@H](CCO)C(=O)O)cc2Cl)cccc1-c1ccc2c(c1)OCCO2 [Example 1205, (R)-2-((5-chloro-2-((3-cyanobenzyl)oxy)-4-((3-(2,3-dihydrobenzo[b][1,4]dioxin-6-yl)-2-methylbenzyl)oxy)benzyl)amino)-4-hydroxybutanoic acid] | – | 2.71 nM
10 | Cc1c(COc2cc(OCc3cccc(C#N)c3)c(CNC(Cc3c[nH]c4ncccc34)C(=O)O)cc2Cl)cccc1-c1ccc2c(c1)OCCO2 (stereo not shown) [Example 1185, 2-((5-chloro-2-((3-cyanobenzyl)oxy)-4-((3-(2,3-dihydrobenzo[b][1,4]dioxin-6-yl)-2-methylbenzyl)oxy)benzyl)amino)-3-(1H-pyrrolo[2,3-b]pyridin-3-yl)propanoic acid] | 10 to 100 nM | –
11 | CC(=O)NCCNCc1ccc(OCc2cccc(-c3ccccc3)c2C)cc1OCc1ccccc1C(F)(F)F [Example 1066, N-(2-((4-((2-methyl-[1,1′-biphenyl]-3-yl)methoxy)-2-((2-(trifluoromethyl)benzyl)oxy)benzyl)amino)ethyl)acetamide] | 100 to 20000 nM | –
12 | COc1ccc(COc2cc(OCc3cccc(-c4ccccc4)c3C)ccc2CNCCNC(C)=O)cc1 [Example 1090, N-(2-((2-((4-methoxybenzyl)oxy)-4-((2-methyl-[1,1′-biphenyl]-3-yl)methoxy)benzyl)amino)ethyl)acetamide] | 100 to 20000 nM | –
13 | CC(=O)NCCNCc1ccc(OCc2cccc(-c3ccccc3)c2C)cc1OCc1cccnc1 [Example 1117, N-(2-((4-((2-methyl-[1,1′-biphenyl]-3-yl)methoxy)-2-(pyridin-3-ylmethoxy)benzyl)amino)ethyl)acetamide] | 10 to 100 nM | –
14 | CC(=O)NCCNCc1ccc(OCc2cccc(-c3ccccc3)c2C)cc1OCc1cc(Cl)ccc1F [Example 1109] | 100 to 20000 nM | –
15 | Cc1cc(OCc2cccc(-c3ccc4c(c3)OCCO4)c2C)cc(OCc2cncc(C#N)c2)c1CN[C@H](CO)C(=O)O [Example 1007, (R)-2-(2-((5-cyanopyridin-3-yl)methoxy)-4-(3-(2,3-dihydrobenzo[b][1,4]dioxin-6-yl)-2-methylbenzyloxy)-6-methylbenzylamino)-3-hydroxypropanoic acid] | 0.6 to 10 nM | –
16 | Cc1c(COc2ccc(CNC(C)(CO)C(=O)O)c(OCc3cccc(C#N)c3)c2)cccc1-c1ccc2c(c1)OCCO2 (stereo not shown) [Example 1124, 2-((2-((3-cyanobenzyl)oxy)-4-((3-(2,3-dihydrobenzo[b][1,4]dioxin-6-yl)-2-methylbenzyl)oxy)benzyl)amino)-3-hydroxy-2-methylpropanoic acid] | 0.6 to 10 nM | –
17 | CC(=O)NCCNCc1ccc(OCc2cccc(-c3ccc4c(c3)OCCO4)c2Cl)cc1OCc1cccc(C#N)c1 [Example 1150, N-(2-(4-(2-chloro-3-(2,3-dihydrobenzo[b][1,4]dioxin-6-yl)benzyloxy)-2-(3-cyanobenzyloxy)benzylamino)ethyl)acetamide] | 10 to 100 nM | –

Next, values leading:

Row | IC50 (value given as range class) | IC50 (numeric value) | SMILES
18 | 0.6 to 10 nM | – | Cc1c(COc2ccc(CN[C@](C)(CO)C(=O)O)c(OCc3cc(C#N)ccn3)c2)cccc1-c1ccc2c(c1)OCCO2 [Example 1131, (R)-2-(2-((4-cyanopyridin-2-yl)methoxy)-4-(3-(2,3-dihydrobenzo[b][1,4]dioxin-6-yl)-2-methylbenzyloxy)benzylamino)-3-hydroxy-2-methylpropanoic acid]
19 | 0.6 to 10 nM | – | Cc1c(COc2cc(OCc3cncc(C#N)c3)c(CN3CCCC[C@H]3C(=O)O)cc2Cl)cccc1-c1ccc2c(c1)OCCO2 [Example 1253, (S)-1-(5-chloro-2-((5-cyanopyridin-3-yl)methoxy)-4-((3-(2,3-dihydrobenzo[b][1,4]dioxin-6-yl)-2-methylbenzyl)oxy)benzyl)piperidine-2-carboxylic acid, TFA salt]
20 | 0.6 to 10 nM | – | Cc1c(COc2cc(OCc3cncc(C#N)c3)c(CN[C@@H](CC(=O)O)C(=O)O)cc2Cl)cccc1-c1ccc2c(c1)OCCO2 [Example 3023, (S)-2-((5-chloro-2-((5-cyanopyridin-3-yl)methoxy)-4-((3-(2,3-dihydrobenzo[b][1,4]dioxin-6-yl)-2-methylbenzyl)oxy)benzyl)amino)succinic acid]
21 | 0.6 to 10 nM | – | Cc1c(COc2cc(OCc3cncc(C(=O)O)c3)c(CN[C@@](C)(CO)C(=O)O)cc2Cl)cccc1-c1ccc2c(c1)OCCO2 [Example 2001, (S)-5-((2-(((2-carboxy-1-hydroxypropan-2-yl)amino)methyl)-4-chloro-5-((3-(2,3-dihydrobenzo[b][1,4]dioxin-6-yl)-2-methylbenzyl)oxy)phenoxy)methyl)nicotinic acid]
22 | 0.6 to 10 nM | – | CC(=O)NCCNCc1c(C)cc(OCc2cccc(-c3ccc4c(c3)OCCO4)c2C)cc1OCc1cncc(C#N)c1 [Example 1005, N-(2-(2-((5-cyanopyridin-3-yl)methoxy)-4-(3-(2,3-dihydrobenzo[b][1,4]dioxin-6-yl)-2-methylbenzyloxy)-6-methylbenzylamino)ethyl)acetamide]
23 | 0.6 to 10 nM | – | Cc1c(COc2ccc(CN[C@@H](C(=O)O)[C@@H](C)O)c(OCc3cccc(C#N)c3)c2)cccc1-c1ccc2c(c1)OCCO2 [Example 1125, (2R,3R)-2-((2-((3-cyanobenzyl)oxy)-4-((3-(2,3-dihydrobenzo[b][1,4]dioxin-6-yl)-2-methylbenzyl)oxy)benzyl)amino)-3-hydroxybutanoic acid]
24 | 0.6 to 10 nM | – | Cc1c(COc2ccc(CN[C@H](CO)C(=O)O)c(OCc3ccc(F)c(C#N)c3)c2)cccc1-c1ccccc1 [Example 1332, (R)-2-((2-((3-cyano-4-fluorobenzyl)oxy)-4-((2-methyl-[1,1′-biphenyl]-3-yl)methoxy)benzyl)amino)-3-hydroxypropanoic acid]
25 | 0.6 to 10 nM | – | Cc1cc(CN[C@](C)(CO)C(=O)O)c(OCc2cncc(C#N)c2)cc1OCc1cccc(-c2ccc3c(c2)OCCO3)c1C [Example 1287, (R)-2-(2-((5-cyanopyridin-3-yl)methoxy)-4-(3-(2,3-dihydrobenzo[b][1,4]dioxin-6-yl)-2-methylbenzyloxy)-5-methylbenzylamino)-3-hydroxy-2-methylpropanoic acid]
26 | 0.6 to 10 nM | – | Cc1cc(CNCCO)c(OCc2cncc(C#N)c2)cc1OCc1cccc(-c2ccc3c(c2)OCCO3)c1Cl [Example 1151, 5-((5-(2-chloro-3-(2,3-dihydrobenzo[b][1,4]dioxin-6-yl)benzyloxy)-2-((2-hydroxyethylamino)methyl)-4-methylphenoxy)methyl)nicotinonitrile]
27 | 0.6 to 10 nM | – | Cc1c(COc2cc(OCc3cncc(C#N)c3)c(CN[C@](C)(CO)C(=O)O)cc2Cl)cccc1-c1ccc2c(c1)OCCO2 [Example 1248, (R)-2-((5-chloro-2-((5-cyanopyridin-3-yl)methoxy)-4-((3-(2,3-dihydrobenzo[b][1,4]dioxin-6-yl)-2-methylbenzyl)oxy)benzyl)amino)-3-hydroxy-2-methylpropanoic acid]
28 | 0.6 to 10 nM | – | CCOC(=O)Nc1cncc(COc2cc(OCc3cccc(-c4ccc5c(c4)OCCO5)c3C)c(Cl)cc2C=O)c1 [Example 3008, ethyl (5-((4-chloro-5-((3-(2,3-dihydrobenzo[b][1,4]dioxin-6-yl)-2-methylbenzyl)oxy)-2-formylphenoxy)methyl)pyridin-3-yl)carbamate]
